Drawing on PubChem BioAssay AID2060362 (Molecular Pharmacology Branch, DTP, NCI, 2025), this text covers viability, T/C and IC50 for 11 compounds.

“And” between values parts separate entries of the source, which are not always exact repeats. Identical values can stand only once.

This assay relates to 128128-338-R-J1-PDC spheroids, viability % test/control. The assay can be described thus: Anticancer human tumor 128128-338-R-J1-PDC patient-derived melanoma cell line growth inhibition [TAK]. The note with it: spheroids with HUVEC and MSC; for viability, T/C: stronger effect = lower value; for IC50: curve of compound. The source says:
Combinatorial screen of targeted agents with TAK-243 and ipatasertib in multi-cell type tumor spheroids
A high-throughput screen of multi-cell type tumor spheroids was designed to identify active combinations of targeted small molecules and TAK-243 or ipatasertib. Complex spheroids include a stromal component modeled by human endothelial cells (HUVEC) and fibroblasts modeled by human mesenchymal stem cells (MSCs). The concentration ranges selected for each drug and investigational agent were based upon clinically achievable concentrations if the clinical Cmax of the agent was known.
Compounds. The drugs and investigational agents: TAK-243 (785004), ipatasertib (767898), everolimus (733504), selumetinib (741078), bortezomib (756655), trametinib (758246), ixazomib (758254), vemurafenib (761431), dabrafenib (764134), sapanisertib (764658), alpelisib (765974), and copanlisib (816437), were obtained from the National Cancer Institute (NCI) Developmental Therapeutics Program Chemical Repository. The FDA-approved anticancer drug set is available from the NCI Developmental Therapeutics Program. […] The stock solutions were prepared in dimethyl sulfoxide (DMSO, Sigma-Aldrich, St. Louis, MO, cat. D2650) at 800-fold the tested concentration and stored at -70 degrees C prior to their use. All drugs and investigational agents were tested over a range starting from a high concentration at or near the clinical Cmax and decreasing in half-log increments. If the clinical Cmax for an agent had not been determined, the highest concentration tested was 10 microM.
NCI60 Cell Culture. NCI60 cell lines were obtained from the NCI Developmental Therapeutics Program Tumor Repository. For each lot of cells, the Repository performed Applied Biosystems AmpFLSTR Identifiler testing with PCR amplification to confirm consistency with the published Identifier STR profile for each cell line. Cells were kept in continuous culture for no more than 20 passages. The optimal seeding densities for each of the cell lines at each time point assessed were determined prior to performing the concentration response studies. Briefly, the NCI60 human tumor lines were grown as monolayers in RPMI 1640 medium supplemented with 10% FBS and 2 mmol/L L-glutamine.
An additional 2 lines were from the NCI60 cell line panel including melanomas, MALME-3M and SK-MEL-2. Pooled donor human umbilical vein endothelial cells (HUVEC, Lonza, cat. CC-2519) and human mesenchymal stem cells (hMSC, Lonza, cat. PT-2501) were purchased from Lonza (Walkersville, MD).
PDMR cell lines were grown in complete medium (DC medium): Dulbecco's modified Eagle's medium (DMEM)/F12 supplemented with 5% fetal bovine serum (FBS), 2 mM L-glutamine, 100 U/mL penicillin and 100 µg/ml streptomycin, 0.4 µg/ml hydrocortisone, 10 ng/ml epidermal growth factor (EGF) recombinant human protein, 24 µg/mL adenine, and 0.1 mg/mL primocin. During culture from frozen stock vials, PDMR cells were cultured in the same medium containing 10 µM Y-27632 (see Table 3). The PDCs were cultured in complete DMEM/F12 media without 10 microM Y-27632 dihydrochloride for at least two passages prior to the screen. The pooled donor HUVEC and hMSC were cultured in endothelial cell growth medium 2 (PromoCell, Heidelberg, Germany, cat. C-22011) and mesenchymal stem cell growth medium 2 (PromoCell, cat. C-28009), respectively. For all experiments, HUVEC and hMSC were used at passages </=5.
For the pre-screen, cell seeding densities were determined from a titration spanning the range from 5,000 to 313 cells per well. The mct-spheroids including 60% malignant cells, 25% HUVEC and 15% MSC dispensed as a mixture into U-bottom Ultra-Low Attachment 384-well plates (Corning, NY)
High-throughput Drug Combination Screening.
Prior to their inoculation into 384-well plates, malignant cells, HUVEC, and hMSC were removed from T flasks using TrypLE express (Thermo Fisher Scientific, cat. 12605036) and harvested by centrifugation for 5 min at 233 x g. […]
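Also: spheroids exposed to compounds for 7 days.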
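For viability, T/C in this document: 100% = DMSO vehicle wells.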

The term viability, T/C denotes the result in the treated group divided by that in the control group, in per cent. A word on the IC50: it is the concentration needed to halve the response being measured. With `CC(=O)Nc1cccc(-n2c(=O)n(C3CC3)c(=O)c3c(Nc4ccc(I)cc4F)n(C)c(=O)c(C)c32)c1`, the IC50 was 2.32 nM and 1.58 nM. Further, the viability, T/C (compound 94.9 pM) is 98.2% and 101%. The viability, T/C (compound 0.0003 µM) was 97.9% and 94.4%. Under “compound 0.000949 µM”, the viability, T/C was 82.8% and 70%. The viability, T/C (compound 0.003 µM) was 41.4% and 25.6%. The viability, T/C (compound 0.00949 µM) is 5.07% and 3.1%. Also, for the setting “compound 0.03 µM”, the viability, T/C is 2.37% and 2.18%.
For `CC(C)(C)c1nc(-c2cccc(NS(=O)(=O)c3c(F)cccc3F)c2F)c(-c2ccnc(N)n2)s1`, the IC50 is 44.7 nM and 43.6 nM. In addition, the viability, T/C (compound 0.0316 µM) is 61.1% and 60.1%. In addition, the viability, T/C (compound 0.1 µM) was 23.9% and 24%. Further, under “compound 0.316 µM”, the viability, T/C is 4.21% and 5.44%. The viability, T/C (compound 1 µM) is 2.39% and 2.26%. Moreover, the viability, T/C (compound 3.16 µM) was 2.82% and 2.69%. In addition, for the setting “compound 10 µM”, the viability, T/C is 17.2% and 16.2%.
On to `CC(C)CC(NC(=O)C(Cc1ccccc1)NC(=O)c1cnccn1)B(O)O` (stereo not given), for which the IC50 is 1.88 nM and 1.73 nM. Further, the viability, T/C (compound 31.6 pM) is 107% and 105%. Moreover, the viability, T/C (compound 0.0001 µM) is 108% and 96.7%. Further, where the note is “compound 0.000316 µM”, the viability, T/C was 99.3% and 93%. For the same compound, the viability, T/C (compound 0.001 µM) was 102% and 90.6%. In addition, the viability, T/C (compound 0.00316 µM) is 6.95% and 5.71%. Besides, for the setting “compound 0.01 µM”, the viability, T/C was 0.2% and 0.52%.
With `CC(C)CC(NC(=O)CNC(=O)c1cc(Cl)ccc1Cl)B1OC(=O)CC(CC(=O)O)(C(=O)O)O1` (stereo not given), the IC50 is 8.17 nM and 8.06 nM. Besides, the viability, T/C (compound 0.000316 µM) was 102% and 104%. For the same compound, under “compound 0.001 µM”, the viability, T/C is 95.7% and 102%. Further, for the setting “compound 0.00316 µM”, the viability, T/C is 102% and 99%. Besides, for the setting “compound 0.01 µM”, the viability, T/C is 39.4% and 38.7%. Further, under “compound 0.0316 µM”, the viability, T/C is 3.88% and 2.92%. Further, the viability, T/C (compound 0.1 µM) is 0.22% and 0.2%.
Consider `CC(C)NCC(C(=O)N1CCN(c2ncnc3c2C(C)CC3O)CC1)c1ccc(Cl)cc1` (stereo not given), for which the viability, T/C runs as follows: (compound 0.3 µM) 102% [middle of 10 runs]; (compound 0.949 µM) 93% [middle of 10 runs]; (compound 3 µM) 89.2% [middle of 10 runs]; (compound 9.49 µM) 69.5% [middle of 10 runs]; (compound 30 µM) 22.7% [middle of 10 runs].
`CC(C)n1nc(-c2ccc3oc(N)nc3c2)c2c(N)ncnc21`: the 50% inhibitory concentration (IC50) was 16.9 nM and 15.7 nM. Besides, where the note is “compound 0.000316 µM”, the viability, T/C is 99.1% and 106%. Besides, where the note is “compound 0.001 µM”, the viability, T/C was 94.7% and 96.1%. Where the note is “compound 0.00316 µM”, the viability, T/C is 83.2% and 80.7%. The viability, T/C (compound 0.01 µM) is 67.3% and 64.7%. For the same compound, the viability, T/C (compound 0.0316 µM) is 31.2% and 30.5%. For the same compound, the viability, T/C (compound 0.1 µM) is 6.18% and 6.1%.
Consider `CCCS(=O)(=O)Nc1ccc(F)c(C(=O)c2c[nH]c3ncc(-c4ccc(Cl)cc4)cc23)c1F`, for which the IC50 is 1290 nM and 1280 nM. The viability, T/C (compound 0.316 µM) is 79.4% and 79.2%. For the same compound, where the note is “compound 1 µM”, the viability, T/C is 60.5% and 59.8%. Moreover, under “compound 3.16 µM”, the viability, T/C is 12.7% and 14.3%. Moreover, the viability, T/C (compound 10 µM) is 0.39% and 0.64%. The viability, T/C (compound 31.6 µM) is 1.44% and 0.22%. Further, the viability, T/C (compound 100 µM) was 1.11% and 5.48%.
Consider `COC1CC2CCC(C)C(O)(O2)C(=O)C(=O)N2CCCCC2C(=O)OC(C(C)CC2CCC(OCCO)C(OC)C2)CC(=O)C(C)C=C(C)C(O)C(OC)C(=O)C(C)CC(C)C=CC=CC=C1C` (stereo not given), for which the IC50 is above 100 nM. For the setting “compound 0.000316 µM”, the viability, T/C is 108% and 104%. For the same compound, the viability, T/C (compound 0.001 µM) is 102%. For the setting “compound 0.00316 µM”, the viability, T/C was 96.4% and 93.1%. Further, the viability, T/C (compound 0.01 µM) was 79.5% and 86.7%. The viability, T/C (compound 0.0316 µM) is 64.5% and 67.5%. Also, the viability, T/C (compound 0.1 µM) was 51.6% and 53.8%.
Take `COc1c(OCCCN2CCOCC2)ccc2c3n(c(=NC(=O)c4cnc(N)nc4)nc12)CCN3`: the IC50 is 173 nM and 153 nM. For the setting “compound 0.00316 µM”, the viability, T/C is 109% and 105%. For the same compound, the viability, T/C (compound 0.01 µM) was 99.4% and 96.6%. The viability, T/C (compound 0.0316 µM) is 99.3% and 84.1%. Also, the viability, T/C (compound 0.1 µM) was 75.9% and 72%. Where the note is “compound 0.316 µM”, the viability, T/C is 21.6% and 15.2%. For the same compound, the viability, T/C (compound 1 µM) is 8.68% and 5.59%.
Take `Cc1nc(NC(=O)N2CCCC2C(N)=O)sc1-c1ccnc(C(C)(C)C(F)(F)F)c1` (stereo not given): the IC50 was above 10000 nM. Besides, under “compound 0.0316 µM”, the viability, T/C was 96.8% and 97.9%. Also, under “compound 0.1 µM”, the viability, T/C is 98% and 97.4%. Moreover, the viability, T/C (compound 0.316 µM) is 96% and 95.9%. For the same compound, the viability, T/C (compound 1 µM) is 96.9% and 92.3%. In addition, for the setting “compound 3.16 µM”, the viability, T/C is 90.8% and 88.5%. The viability, T/C (compound 10 µM) was 81.5% and 71.4%.
For `Cn1cnc2c(F)c(Nc3ccc(Br)cc3Cl)c(C(=O)NOCCO)cc21`, the IC50 is 72.1 nM and 94.6 nM. Besides, the viability, T/C (compound 0.00949 µM) was 95.7% and 94.9%. For the setting “compound 0.03 µM”, the viability, T/C was 75.4% and 82.6%. In addition, under “compound 0.0949 µM”, the viability, T/C was 44.2% and 50.7%. Under “compound 0.3 µM”, the viability, T/C is 9.03% and 14.9%. For the same compound, for the setting “compound 0.949 µM”, the viability, T/C is 3.38% and 4.34%. Besides, the viability, T/C (compound 3 µM) is 3.13% and 2.58%.
